{"source": "patent US12214036B2", "about": "“Combination therapy comprising AXL/MER and PD-1/PD-L1 inhibitors” (Incyte Corporation, priority 2020, dated 2025)", "system": "CTG-1339 tumors", "test": "Sarcoma PDX model CTG-1339 (osteosarcoma)", "type": "in vivo, athymic nude mice", "method": "Macrophages were allowed to thaw on ice before being lysed with 250 μL/well of 1× Lysis Buffer (Cell Signaling Technology; #9803) and Halt protease and phosphatase inhibitors (ThermoFisher Scientific) for 1 hour at 4° C. The lysed cells were scraped and transferred to an Eppendorf vial on ice. The lysates were centrifuged at 12,700 rpm for 15 minutes at 4° C. PDX tumors were weighed and homogenized with lysis buffer supplemented with protease and phosphatase inhibitor cocktails (Roche, Basel, Switzerland; #11836170001). Tumors were lysed on ice for 30 minutes, followed by centrifugation at 13,000 rpm for 10 minutes. Protein lysates were quantified using BCA Protein Assay Kit (Pierce, ThermoFisher Scientific; #23225). Lysates were transferred to a new tube together with 6× Laemmli SDS sample buffer (Alfa Aesar, Haverhill, Mass.) and the samples were heated for 6 minutes at 95° C. Approximately 50 μg of protein sample was loaded per well using Novex™ 8-16% Tris-Glycine Mini Gels or 4-12% Tris-Glycine Novex WedgeGels (Invitrogen, Carlsbad, Calif.). The proteins were transferred to a nitrocellulose membrane using an iBlot (ThermoFisher Scientific) dry blotting system. The membranes were blocked with 0.5% nonfat dry milk in wash buffer (100 mM NaCl, 10 mM Tris-HCl, pH 8.0, 0.1% Tween 20) for 1 hour at room temperature. The primary antibody used for pMER was from PhosphoSolutions (Aurora, Colo.; #p186-749). The remaining antibodies were obtained from Cell Signaling Technology: MER (#4319), pAXL (#5724), AXL, (#4566), GAS6 (#67202), pAKT (#4060), AKT (#9272), and β-Actin (#4970). Primary antibodies were added at 1:500 and 1:1000, respectively, in 0.5% milk/wash buffer and rocked overnight at 4° C. The membranes were washed three times in wash buffer before incubation with the secondary antibody (anti-rabbit IgG1-HRP; Cell Signaling Technology) at 1:2500 in 0.5% milk/wash buffer for 2 hours at room temperature. The membranes were washed again before the bands were detected with SuperSignal West Dura Extended Duration Chemiluminescent substrate (ThermoFisher Scientific) and were visualized using the Fluorochem M Digital Imager (Protein Simple, San Jose, Calif.).\nMBT-2 cells were obtained from the Japanese Collection of Research Bioresources Cell Bank and were maintained in DMEM supplemented with 10% FBS. MC38 cells were obtained from the NCI. 4T1 cells were obtained from ATCC and maintained in RPMI media supplemented with 10% FBS. For MBT-2 experiments, 5×10^5 MBT-2 cells were inoculated subcutaneously into the right hind flank of 6- to 8-week-old C3H mice or athymic nude mice (Charles River Laboratories, Wilmington, Mass.). […] Mice were monitored for tumor growth and overt tolerability over the course of the experiment. […]", "data": [{"smiles": "CC(C)C(=O)N1CCC(c2cc(-c3ccc(NC(=O)c4cn(C(C)C)c(=O)n(-c5ccccn5)c4=O)cc3)c3c(N)ncnn23)CC1", "note": "[Compound 1, N-(4-(4-Amino-7-(1-isobutyrylpiperidin-4-yl)pyrrolo[1,2-f][1,2,4]triazin-5-yl)phenyl)-1-isopropyl-2,4-dioxo-3-(pyridin-2-yl)-1,2,3,4-tetrahydropyrimidine-5-carboxamide]", "values": [{"measurement": "antitumor response", "setting": "CTG-1339, 10, 30, 100 mg/kg BID oral, FIG. 9C", "value": "resistant"}, {"measurement": "pAKT in tumors (Western blot)", "setting": "CTG-1339 tumors, FIG. 9D", "value": "only inhibited in CTG-2041"}, {"measurement": "pAXL and pMER in tumors (Western blot)", "setting": "CTG-1339 tumors, FIG. 9D", "value": "inhibited"}, {"measurement": "total MER levels in tumors (Western blot)", "setting": "CTG-1339 tumors, FIG. 9D", "value": "increased"}]}]}
